Patent publication US10414754B2, “Indolizine compounds, a process for their preparation and pharmaceutical compositions containing them” (LES LABORATOIRES SERVIER, priority 2013, dated 2019)
Structures can show the parent of a compound that is named as a salt.

Experiments:
Bcl-2 protein = biological target: T1, Bcl-2 protein (histag-Bcl-2, UniProtKB P10415) (Homo sapiens, UniProt P10415); test: Inhibition of Bcl-2 by the fluorescence polarisation technique; format: binding; settings: fluorescence polarisation, 2 hours incubation; read-out: IC50 (nM) Bcl-2 FP
T1 construct: His tag
T1 sequence (P10415 whole entry): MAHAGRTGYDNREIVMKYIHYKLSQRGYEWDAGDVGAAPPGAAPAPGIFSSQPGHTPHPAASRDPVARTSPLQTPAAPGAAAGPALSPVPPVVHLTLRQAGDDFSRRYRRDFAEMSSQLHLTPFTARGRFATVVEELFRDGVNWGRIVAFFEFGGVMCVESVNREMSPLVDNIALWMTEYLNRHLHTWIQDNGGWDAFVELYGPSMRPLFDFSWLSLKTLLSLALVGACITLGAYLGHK
Protocol: The fluorescence polarisation tests were carried out on microplates (384 wells). The Bcl-2 protein, labelled (histag-Bcl-2 such that Bcl-2 corresponds to the UniProtKB® primary accession number: P10415), at a final concentration of 2.50×10^−8 M, is mixed with a fluorescent peptide (Fluorescein-[…]), at a final concentration of 1.00×10^−8M in a buffer solution (Hepes 10 mM, NaCl 150 mM, Tween20 0.05%, pH 7.4), in the presence or absence of increasing concentrations of test compounds. After incubation for 2 hours, the fluorescence polarisation is measured.

[1] = tested on: RS4;11 leukaemia tumour line; test: In vitro cytotoxicity (MTT) on RS4;11; format: cell-based; settings: Homo sapiens; RS4;11 cells, 48 hours exposure
Protocol: The cytotoxicity studies were carried out on the RS4;11 leukaemia tumour line.
The cells are distributed onto microplates and exposed to the test compounds for 48 hours.
The cell viability is then quantified by a colorimetric assay, the Microculture Tetrazolium Assay (Cancer Res., 1987, 47, 939-942).

IC50 (Bcl-2 protein) | Structure (SMILES) | IC50 [1]
3.4 nM | C[C@@H]1Cc2ccccc2CN1C(=O)c1cc2c(cc1-c1cc(C(=O)N(c3ccc(O)cc3)c3ccc(OCCN4CCOCC4)c(F)c3)c3ccccn13)OCO2 [Example 17, N-{3-Fluoro-4-[2-(morpholin-4-yl)ethoxy]phenyl}-N-(4-hydroxyphenyl)-3-(6-{[(3R)-3-methyl-3,4-dihydroisoquinolin-2(1H)-yl]carbonyl}-1,3-benzodioxol-5-yl)indolizine-1-carboxamide hydrochloride] | 11.8 nM
7.5 nM | O=C(c1cc2c(cc1-c1cc(C(=O)N(c3ccc(O)cc3)c3ccc(OCCN4CCOCC4)c(F)c3)c3ccccn13)OCO2)N1CCc2ccccc2C1 [Example 18, 3-[6-(3,4-Dihydroisoquinolin-2(1H)-ylcarbonyl)-1,3-benzodioxol-5-yl]-N-{3-fluoro-4-[2-(morpholin-4-yl)ethoxy]phenyl}-N-(4-hydroxyphenyl)indolizine-1-carboxamide hydrochloride] | 47.7 nM
8 nM | Cc1ccc(C(=O)N2Cc3ccccc3C[C@H]2CCN2CCOCC2)c(-c2cc(C(=O)N(c3ccccc3)c3ccc(O)cc3)c3n2CCCC3)c1 [Example 19, N-(4-Hydroxyphenyl)-3-(5-methyl-2-{[(3S)-3-[2-(morpholin-4-yl)ethyl]-3,4-dihydroisoquinolin-2(1H)-yl]carbonyl}phenyl)-N-phenyl-5,6,7,8-tetrahydro-indolizine-1-carboxamide hydrochloride] | 235 nM
11.1 nM | O=C(c1cc(-c2ccccc2C(=O)N2Cc3ccccc3C[C@H]2CCN2CCOCC2)n2c1CCCC2)N(c1ccccc1)c1ccc(O)cc1 [Example 20, N-(4-Hydroxyphenyl)-3-(2-{[(3S)-3-[2-(morpholin-4-yl)ethyl]-3,4-dihydroisoquinolin-2(1H)-yl]carbonyl}phenyl)-N-phenyl-5,6,7,8-tetrahydroindolizine-1-carboxamide hydrochloride] | 205 nM
4.6 nM | C[C@@H]1Cc2ccccc2CN1C(=O)c1cc2c(cc1-c1cc(C(=O)N(c3ccncc3)c3ccc(O)cc3)c3ccccn13)OCO2 [Example 21, N-(4-Hydroxyphenyl)-3-(6-{[(3R)-3-methyl-3,4-dihydroisoquinolin-2(1H)-yl]carbonyl}-1,3-benzodioxol-5-yl)-N-(pyridin-4-yl)indolizine-1-carboxamide hydrochloride] | 25.3 nM
12.9 nM | O=C(c1cc(-c2cc3c(cc2C(=O)N2Cc4ccccc4C[C@H]2CCN2CCOCC2)OCO3)n2cccnc12)N(c1ccccc1)c1ccc(O)cc1 [Example 22, N-(4-Hydroxyphenyl)-6-(6-{[(3S)-3-[2-(morpholin-4-yl)ethyl]-3,4-dihydroisoquinolin-2(1H)-yl]carbonyl}-1,3-benzodioxol-5-yl)-N-phenylpyrrolo[1,2-a]-pyrimidine-8-carboxamide hydrochloride] | 263 nM
3.8 nM | N#Cc1cccc(N(C(=O)c2cc(-c3cc4c(cc3C(=O)N3Cc5ccccc5C[C@H]3CCN3CCOCC3)OCO4)n3c2CCCC3)c2ccc(O)cc2)c1 [Example 23, N-(3-Cyanophenyl)-N-(4-hydroxyphenyl)-3-(6-{[(3S)-3-[2-(morpholin-4-yl)ethyl]-3,4-dihydroisoquinolin-2(1H)-yl]carbonyl}-1,3-benzodioxol-5-yl)-5,6,7,8-tetrahydroindolizine-1-carboxamide hydrochloride] | 9.99 nM
6.2 nM | O=C(c1cc(-c2cc3c(cc2C(=O)N2Cc4ccccc4C[C@H]2CCN2CCOCC2)OCO3)n2c1CCCC2)N(c1ccc(O)cc1)c1cccc(F)c1 [Example 24, N-(3-Fluorophenyl)-N-(4-hydroxyphenyl)-3-(6-{[(3S)-3-[2-(morpholin-4-yl)ethyl]-3,4-dihydroisoquinolin-2(1H)-yl]carbonyl}-1,3-benzodioxol-5-yl)-5,6,7,8-tetrahydroindolizine-1-carboxamide hydrochloride] | 28.4 nM
7.9 nM | O=C(c1cc(-c2cc3c(cc2C(=O)N2Cc4ccccc4C[C@H]2CCN2CCOCC2)OCO3)n2c1CCCC2)N(c1ccc(O)cc1)c1ccc(F)c(F)c1 [Example 25, N-(3,4-Difluorophenyl)-N-(4-hydroxyphenyl)-3-(6-{[(3S)-3-[2-(morpholin-4-yl)ethyl]-3,4-dihydroisoquinolin-2(1H)-yl]carbonyl}-1,3-benzodioxol-5-yl)-5,6,7,8-tetrahydroindolizine-1-carboxamide hydrochloride] | 30 nM
16.6 nM | O=C(c1cc(-c2cc3c(cc2C(=O)N2Cc4ccccc4C[C@H]2CCN2CCOCC2)OCO3)n2c1CCCC2)N(c1ccccc1)c1cccc(F)c1 [Example 26, N-(3-Fluorophenyl)-3-(6-{[(3S)-3-[2-(morpholin-4-yl)ethyl]-3,4-dihydro-isoquinolin-2(1H)-yl]carbonyl}-1,3-benzodioxol-5-yl)-N-phenyl-5,6,7,8-tetrahydro-indolizine-1-carboxamide hydrochloride] | 300 nM
7.7 nM | O=C(c1cc(-c2cc(Cl)ccc2C(=O)N2Cc3ccccc3C[C@H]2CCN2CCOCC2)n2c1CCCC2)N(c1ccc(O)cc1)c1cccc(F)c1 [Example 27, 3-(5-Chloro-2-{[(3S)-3-[2-(morpholin-4-yl)ethyl]-3,4-dihydroisoquinolin-2(1H)-yl]carbonyl}phenyl)-N-(3-fluorophenyl)-N-(4-hydroxyphenyl)-5,6,7,8-tetrahydroindolizine-1-carboxamide hydrochloride] | 44.1 nM
8.8 nM | COc1ccc(C(=O)N2Cc3ccccc3C[C@H]2CCN2CCOCC2)c(-c2cc(C(=O)N(c3ccccc3)c3ccc(O)cc3)c3n2CCCC3)c1 [Example 28, N-(4-Hydroxyphenyl)-3-(5-methoxy-2-{[(3S)-3-[2-(morpholin-4-yl)ethyl]-3,4-dihydroisoquinolin-2(1H)-yl]carbonyl}phenyl)-N-phenyl-5,6,7,8-tetrahydro-indolizine-1-carboxamide hydrochloride] | 112 nM
19 nM | COc1ccc(-c2cc(C(=O)N(c3ccccc3)c3ccc(O)cc3)c3n2CCCC3)c(C(=O)N2Cc3ccccc3C[C@H]2CCN2CCOCC2)c1 [Example 29, N-(4-Hydroxyphenyl)-3-(4-methoxy-2-{[(3S)-3-[2-(morpholin-4-yl)ethyl]-3,4-dihydroisoquinolin-2(1H)-yl]carbonyl}phenyl)-N-phenyl-5,6,7,8-tetrahydro-indolizine-1-carboxamide hydrochloride] | 163 nM
10.4 nM | C[C@@H]1Cc2ccccc2CN1C(=O)c1cc2c(cc1-c1cc(C(=O)N(c3ccc(O)cc3)c3ccc(CN4CCCC(F)(F)C4)cc3)c3ccccn13)OCO2 [Example 30, N-{4-[(3,3-Difluoropiperidin-1-yl)methyl]phenyl}-N-(4-hydroxyphenyl)-3-(6-{[(3R)-3-methyl-3,4-dihydroisoquinolin-2(1H)-yl]carbonyl}-1,3-benzodioxol-5-yl)indolizine-1-carboxamide hydrochloride] | 52.3 nM
5.4 nM | C[C@@H]1Cc2ccccc2CN1C(=O)c1cc2c(cc1-c1cc(C(=O)N(c3ccc(O)cc3)c3ccc4ncccc4c3)c3ccccn13)OCO2 [Example 31, N-(4-Hydroxyphenyl)-3-(6-{[(3R)-3-methyl-3,4-dihydroisoquinolin-2(1H)-yl]carbonyl}-1,3-benzodioxol-5-yl)-N-(quinolin-6-yl)indolizine-1-carboxamide hydrochloride] | 13.7 nM
5 nM | Cc1cc(N(C(=O)c2cc(-c3cc4c(cc3C(=O)N3Cc5ccccc5C[C@H]3C)OCO4)n3ccccc23)c2ccc(O)cc2)ccn1 [Example 32, N-(4-Hydroxyphenyl)-3-(6-{[(3R)-3-methyl-3,4-dihydroisoquinolin-2(1H)-yl]carbonyl}-1,3-benzodioxol-5-yl)-N-(2-methylpyridin-4-yl)indolizine-1-carboxamide hydrochloride] | 32.7 nM
4.6 nM | C[C@@H]1Cc2ccccc2CN1C(=O)c1cc2c(cc1-c1cc(C(=O)N(c3ccc(O)cc3)c3cnc4c(ccn4C)c3)c3ccccn13)OCO2 [Example 33, N-(4-Hydroxyphenyl)-3-(6-{[(3R)-3-methyl-3,4-dihydroisoquinolin-2(1H)-yl]carbonyl}-1,3-benzodioxol-5-yl)-N-(1-methyl-1H-pyrrolo[2,3-b]pyridin-5-yl)indolizine-1-carboxamide hydrochloride] | 6.33 nM
5.6 nM | C[C@@H]1Cc2ccccc2CN1C(=O)c1cc2c(cc1-c1cc(C(=O)N(c3ccc(O)cc3)c3cccnc3)c3ccccn13)OCO2 [Example 34, N-(4-Hydroxyphenyl)-3-(6-{[(3R)-3-methyl-3,4-dihydroisoquinolin-2(1H)-yl]carbonyl}-1,3-benzodioxol-5-yl)-N-(pyridin-3-yl)indolizine-1-carboxamide hydrochloride] | 27.3 nM
15.1 nM | C[C@@H]1Cc2ccccc2CN1C(=O)c1cc2c(cc1-c1cc(C(=O)N(c3ccc(O)cc3)c3ccc(CCN4CCCC(F)(F)C4)cc3)c3ccccn13)OCO2 [Example 35, N-{4-[2-(3,3-Difluoropiperidin-1-yl)ethyl]phenyl}-N-(4-hydroxyphenyl)-3-(6-{[(3R)-3-methyl-3,4-dihydroisoquinolin-2(1H)-yl]carbonyl}-1,3-benzodioxol-5-yl)indolizine-1-carboxamide hydrochloride] | 62.2 nM
